How the values were obtained:
soybean = assay: Test B pre/postemergence soybean; type: in vivo, Glycine max
Procedure, shortened: (§1)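 Test chemicals in a non-phytotoxic solvent mixture with surfactant were sprayed preemergence onto planted seeds and postemergence onto plants 2 to 18 cm tall (1- to 4-leaf stage). After twelve to sixteen days in a greenhouse, injury was visually rated against untreated controls from 0 (no effect) to 10 (complete control).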

cocklebur = assay: Test B pre/postemergence cocklebur; type: in vivo, Xanthium strumarium
Procedure, shortened: as §1

wild oat = assay: Test B pre/postemergence wild oat; type: in vivo, Avena fatua
Procedure, shortened: as §1

crabgrass = assay: Test B pre/postemergence crabgrass; type: in vivo, Digitaria sanguinalis
Procedure, shortened: as §1

wheat = assay: Test B pre/postemergence wheat; type: in vivo, Triticum aestivum
Procedure, shortened: as §1

sugar beet = assay: Test B pre/postemergence sugar beet; type: in vivo, Beta vulgaris
Procedure, shortened: as §1

rape = assay: Test B pre/postemergence rape; type: in vivo, Brassica napus
Procedure, shortened: as §1

bedstraw = assay: Test B pre/postemergence bedstraw; type: in vivo, Galium aparine
Procedure, shortened: as §1

purple nutsedge = assay: Test B pre/postemergence purple nutsedge; type: in vivo, Cyperus rotundus
Procedure, shortened: as §1

duck salad = assay: Test B flood test duck salad; type: in vivo, Heteranthera limosa
Procedure, shortened: (§2)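 Plants were grown to the 2-leaf stage before treatment with test chemical, then held in a greenhouse for twelve to sixteen days. Injury was visually rated against untreated controls on a 0–10 scale, where 0 is no effect and 10 is complete control.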

bamyardgrass = assay: Test B flood test barnyardgrass; type: in vivo, Echinochloa crus-galli
Procedure, shortened: as §2

surinam grass = assay: Test B pre/postemergence surinam grass; type: in vivo, Brachiaria decumbens
Procedure, shortened: as §1

velvetleaf = assay: Test B pre/postemergence velvetleaf; type: in vivo, Abutilon theophrasti
Procedure, shortened: as §1

smallflower flatsedge = assay: Test B flood test smallflower flatsedge; type: in vivo, Cyperus difformis
Procedure, shortened: as §2

rice = assay: Test B flood test rice; type: in vivo, Oryza sativa
Procedure, shortened: as §2

corn = assay: Test B pre/postemergence corn; type: in vivo, Zea mays
Procedure, shortened: as §1

blackgrass = assay: Test B pre/postemergence blackgrass; type: in vivo, Alopecurus myosuroides
Procedure, shortened: as §1

[1] = Postemergence, Rate 125 g/ha, scale 0 to 10, 0 is no effect, 10 is complete control
[2] = Preemergence, Rate 62 g/ha, scale of 0 to 10 where 0 is no effect and 10 is complete control
[3] = Preemergence, Rate 250 g/ha, scale of 0 to 10 where 0 is no effect and 10 is complete control
[4] = Preemergence, Rate 500 g/ha, scale of 0 to 10 where 0 is no effect and 10 is complete control
[5] = Rate 62 g/ha, Postemergence, scale 0 to 10 (0 no effect, 10 complete control)
[6] = Rate 500 g/ha, Postemergence, scale 0 to 10, 0 no effect, 10 complete control
[7] = Rate 250 g/ha, Postemergence, scale of 0 to 10 where 0 is no effect and 10 is complete control
[8] = Rate 62 g/ha, headed Pre-emergence (flood test species), scale 0 to 10 (0 no effect, 10 complete control)
[9] = Rate 125 g/ha, Pre-emergence, flood test species, scale 0 to 10 where 0 is no effect and 10 is complete control
[10] = Rate 250 g/ha, Pre-emergence, flood-test species, scale 0 to 10, 0 is no effect, 10 is complete control
[11] = Rate 500 g/ha, Pre-emergence, flood test species, scale 0 to 10 (0 no effect, 10 complete control)

SMILES: Cc1c(-n2c(=O)on(C(=O)N(c3ccc(F)cc3)C(C)C)c2=O)ccc2ccccc12 [Compound 338]
- Plant response rating, Soybean (soybean; [1]): 1
- Soybean plant response rating (soybean; [2]): 0
- Soybean plant response rating (0 to 10 scale) (soybean; Preemergence, Rate 125 g/ha): 0
- Soybean plant response rating (soybean; [3]): 0
- Soybean plant response rating (soybean; [4]): 0
- Soybean plant response rating (soybean; [5]): 1
- Plant response rating, Soybean (soybean; [6]): 2
- Plant response rating, Cocklebur (cocklebur; [1]): 0
- Cocklebur plant response rating (cocklebur; [2]): 0
- Cocklebur plant response rating (0 to 10 scale) (cocklebur; Preemergence, Rate 125 g/ha): 0
- Cocklebur plant response rating (cocklebur; [3]): 0
- Cocklebur plant response rating (cocklebur; [4]): 0
- Cocklebur plant response rating (cocklebur; [5]): 0
- Plant response rating, Cocklebur (cocklebur; [6]): 0
- Plant response rating, Wild oats (wild oat; [1]): 0
- Wild oats plant response rating (wild oat; [2]): 0
- Wild oats plant response rating (0 to 10 scale) (wild oat; Preemergence, Rate 125 g/ha): 0
- Wild oats plant response rating (wild oat; [3]): 0
- Wild oats plant response rating (wild oat; [4]): 0
- Wild oats plant response rating (wild oat; [5]): 0
- Plant response rating, Wild oats (wild oat; [6]): 0
- Plant response rating, Crabgrass (crabgrass; [1]): 0
- Crabgrass plant response rating (crabgrass; [2]): 0
- Crabgrass plant response rating (0 to 10 scale) (crabgrass; Preemergence, Rate 125 g/ha): 0
- Crabgrass plant response rating (crabgrass; [3]): 0
- Crabgrass plant response rating (crabgrass; [4]): 0
- Crabgrass plant response rating (crabgrass; [5]): 0
- Plant response rating, Crabgrass (crabgrass; [6]): 0
- Plant response rating, Wheat (wheat; [1]): 0
- Wheat plant response rating (wheat; [2]): 0
- Wheat plant response rating (0 to 10 scale) (wheat; Preemergence, Rate 125 g/ha): 0
- Wheat plant response rating (wheat; [3]): 0
- Wheat plant response rating (wheat; [4]): 0
- Wheat plant response rating (wheat; [5]): 0
- Plant response rating, Wheat (wheat; [6]): 0
- Plant response rating, Sugarbeets (sugar beet; [1]): 0
- Sugarbeets plant response rating (sugar beet; [2]): 0
- Sugarbeets plant response rating (0 to 10 scale) (sugar beet; Preemergence, Rate 125 g/ha): 0
- Sugarbeets plant response rating (sugar beet; [3]): 0
- Sugarbeets plant response rating (sugar beet; [4]): 0
- Sugarbeets plant response rating (sugar beet; [5]): 0
- Plant response rating, Sugarbeets (sugar beet; [6]): 0
- Plant response rating, Rape (rape; [1]): 0
- Rape plant response rating (rape; [2]): 0
- Rape plant response rating (0 to 10 scale) (rape; Preemergence, Rate 125 g/ha): 0
- Rape plant response rating (rape; [3]): 0
- Rape plant response rating (rape; [4]): 0
- Rape plant response rating (rape; [5]): 0
- Plant response rating, Rape (rape; [6]): 0
- Plant response rating, Bedstraw (bedstraw; [1]): 2
- Bedstraw plant response rating (bedstraw; [2]): 0
- Bedstraw plant response rating (0 to 10 scale) (bedstraw; Preemergence, Rate 125 g/ha): 0
- Bedstraw plant response rating (bedstraw; [3]): 0
- Bedstraw plant response rating (bedstraw; [4]): 0
- Bedstraw plant response rating (bedstraw; [5]): 0
- Plant response rating, Bedstraw (bedstraw; [7]): 2
- Plant response rating, Bedstraw (bedstraw; [6]): 5
- Plant response rating, Nutsedge (purple nutsedge; [1]): 0
- Nutsedge plant response rating (purple nutsedge; [2]): 0
- Nutsedge plant response rating (0 to 10 scale) (purple nutsedge; Preemergence, Rate 125 g/ha): 0
- Nutsedge plant response rating (purple nutsedge; [3]): 0
- Nutsedge plant response rating (purple nutsedge; [4]): 0
- Nutsedge plant response rating (purple nutsedge; [5]): 0
- Plant response rating, Nutsedge (purple nutsedge; [6]): 0
- Ducksalad plant response rating (duck salad; [8]): 0
- Ducksalad plant response rating (duck salad; [9]): 0
- Ducksalad plant response rating (duck salad; [10]): 0
- Ducksalad plant response rating (duck salad; [11]): 0
- Barnyardgrass plant response rating (bamyardgrass; [8]): 0
- Barnyardgrass plant response rating (bamyardgrass; [9]): 0
- Barnyardgrass plant response rating (bamyardgrass; [10]): 0
- Barnyardgrass plant response rating (bamyardgrass; [11]): 9
- Plant response rating, B. signalgrass (surinam grass; [1]): 0
- B. signalgrass plant response rating (surinam grass; [2]): 0
- B. signalgrass plant response rating (0 to 10 scale, 0 is no effect, 10 is complete control) (surinam grass; Preemergence, Rate 125 g/ha): 0
- B. signalgrass plant response rating (surinam grass; [3]): 0
- B. signalgrass plant response rating (surinam grass; [4]): 0
- B. signalgrass plant response rating (surinam grass; [5]): 0
- Plant response rating, B. signalgrass (surinam grass; [7]): 0
- Plant response rating, B. signalgrass (surinam grass; [6]): 0
- Plant response rating, Velvetleaf (velvetleaf; [1]): 0
- Velvetleaf plant response rating (velvetleaf; [2]): 0
- Velvetleaf plant response rating (0 to 10 scale) (velvetleaf; Preemergence, Rate 125 g/ha): 0
- Velvetleaf plant response rating (velvetleaf; [3]): 0
- Velvetleaf plant response rating (velvetleaf; [4]): 0
- Velvetleaf plant response rating (velvetleaf; [5]): 0
- Plant response rating, Velvetleaf (velvetleaf; [6]): 0
- S. Flatsedge plant response rating (smallflower flatsedge; [8]): 0
- S. Flatsedge plant response rating (smallflower flatsedge; [9]): 0
- S. Flatsedge plant response rating (smallflower flatsedge; [10]): 0
- S. Flatsedge plant response rating (smallflower flatsedge; [11]): 0
- Rice plant response rating (rice; [8]): 0
- Rice plant response rating (rice; [9]): 0
- Rice plant response rating (rice; [10]): 0
- Rice plant response rating (rice; [11]): 0
- Plant response rating, Corn (corn; [1]): 0
- Corn plant response rating (corn; [2]): 0
- Corn plant response rating (0 to 10 scale) (corn; Preemergence, Rate 125 g/ha): 0
- Corn plant response rating (corn; [3]): 0
- Corn plant response rating (corn; [4]): 0
- Corn plant response rating (corn; [5]): 0
- Plant response rating, Corn (corn; [6]): 0
- Plant response rating, Blackgrass (blackgrass; [1]): 0
- Blackgrass plant response rating (blackgrass; [2]): 0
- Blackgrass plant response rating (0 to 10 scale) (blackgrass; Preemergence, Rate 125 g/ha): 0
- Blackgrass plant response rating (blackgrass; [3]): 0
- Blackgrass plant response rating (blackgrass; [4]): 0
- Blackgrass plant response rating (blackgrass; [5]): 0
- Plant response rating, Blackgrass (blackgrass; [7]): 0
- Plant response rating, Blackgrass (blackgrass; [6]): 0
